Consider five compounds from US10253322B2, “Method for the production of transgenic plants” (MONSANTO TECHNOLOGY LLC, priority 2001, dated 2019).

The structures appear in SMILES notation.

Assay [1] concerns wheat mesocotyl explants. Put plainly: Multiple shoot production with cytokinins alone, wheat mesocotyl explants. It is filed as cell-based. The conditions noted are these: cytokinin 5 mg/L, 32 days after culture. The procedure: A. Wheat mesocotyl explant: Mature wheat seeds were surface sterilized first in 70% ethanol for 1 min. and then soaked in 20% CLOROX® (5.25% sodium hypochlorite) and shaken at 250 rpm for 20 min. The seeds were then rinsed five times with sterile distilled water and then placed in 100×25 mm petri dishes containing a sterile piece of felt and ˜15 mL of double distilled sterile water with 5 μM BA for germination. The seeds were cultured for 1 day in darkness at ˜24° C. Mesocotyl sections about 2-3 mm in length were then excised by removing the upper portion of the coleoptile, approximately 1-1.5 mm in length, and root tissue around the crown region. These mesocotyl explants contain at least several different and distinct meristems, such as a scutellar node, a coleoptile node, a first leaf bud and possibly several leaf nodes, and an apical meristem. This mesocotyl explant thus comprises an apical meristem and several axillary meristems, including the scutellar node meristem. […] It is also important that the explants have all of the described meristems intact after excision, in order to maximize multiple bud response in culture.
Wheat explants such as mesocotyl sections from seedlings, mature embryos from mature seeds, and immature embryos from immature seeds were cultured on multiple shoot inducing media comprising combinations of cytokinins, auxins and abscisic acid (ABA). […] The particular media compositions used for this invention are described in detail in Table 1. The mesocotyl explants were placed on media with the acropetal end up, and mature and immature embryo explants were placed on media with the scutellum-side up. […]
For the first three weeks, the explants were usually trimmed, by removing the top portion of coleoptile 3-5 mm above the crown region for wheat, every 3 to 5 days to inhibit dominant growth.
Four different cytokinins, not in combination with auxin, were tested for their ability to induce multiple shoot induction on wheat mesocotyl explants: BA, kinetin, zeatin and TDZ.

For assay [2], the system named is shoots from Bobwhite mesocotyl explants. Put plainly: Root induction of elongated shoots. The assay is classed as cell-based, wheat. The conditions noted are these: IBA 1 mg/L. As for the experimental part:
Usually three to five weeks after the induction stage culture described above, multiple bud clumps were divided and transferred to a shoot elongation medium, and cultured under 16 h photoperiod at about 25° C. for 3 to 4 weeks. The shoot elongation medium comprised MS basal medium supplemented with ascorbic acid at 100 mg/L, 2-[N-Morpholino]ethanesulfonic acid (MES) at 1.95 g/L, casein hydrolysate at 100 mg/L, maltose at 40 g/L, and Schweizer-Hall® gelling agent at 2 g/L. The elongated shoots were transferred to a rooting medium, comprising MS basal medium supplemented with IBA at 1 mg/L, ascorbic acid at 100 mg/L, 2-[N-Morpholino] ethanesulfonic acid (MES) at 1.95 g/L, casein hydrolysate at 100 mg/L, maltose at 40 g/L, and Schweizer-Hall® gelling agent at 2 g/L, for 3 to 4 weeks, after which sufficient roots had formed to transfer the shoots to soil.
Three genotypes were tested to evaluate shoot elongation from the buds induced in the above described multiple shoot induction step. Bobwhite, 251BW012 and Autry525 were chosen as representative standard, good and poor lines respectively, based on a previous study of embryogenic regeneration capacity. The buds were removed from the media containing the growth regulator combination described in the induction stage, after about 3-5 weeks of culture. […]

The test system of assay [3] is wheat mesocotyl explants. The experiment in a line: Multiple bud induction from primary meristems on multiple shoot inducing media, wheat mesocotyl explants. The assay is classed as cell-based. The conditions noted are these: 4 weeks after culture initiation (Table 3). As for the experimental part:
A. Wheat mesocotyl explant: Mature wheat seeds were surface sterilized first in 70% ethanol for 1 min. and then soaked in 20% CLOROX® (5.25% sodium hypochlorite) and shaken at 250 rpm for 20 min. The seeds were then rinsed five times with sterile distilled water and then placed in 100×25 mm petri dishes containing a sterile piece of felt and ˜15 mL of double distilled sterile water with 5 μM BA for germination. The seeds were cultured for 1 day in darkness at ˜24° C. Mesocotyl sections about 2-3 mm in length were then excised by removing the upper portion of the coleoptile, approximately 1-1.5 mm in length, and root tissue around the crown region. These mesocotyl explants contain at least several different and distinct meristems, such as a scutellar node, a coleoptile node, a first leaf bud and possibly several leaf nodes, and an apical meristem. This mesocotyl explant thus comprises an apical meristem and several axillary meristems, including the scutellar node meristem. It is important when excising the mesocotyl explant to leave a whole piece of the scutellum attached to the explant, because the scutellar node meristem contributes a large primary meristem from which upwards of 100 buds can be produced via the method of the present invention, relative to the small primary meristems contributed by the other meristems from which a smaller number of buds can be produced. […]

[4] abbreviates: (D) continuous dark first two weeks, then light 16/8 two weeks.
Where [5] appears, read: (L) 16 h photoperiod for four weeks.

In the case of `c1ccc(CNc2ncnc3nc[nH]c23)cc1` [BA, 6-benzylaminopurine], the results for the “% of explants producing 2-5 shoots (each from a single primary meristem)” value (from here on “% of explants producing 2-5 shoots”) in assay [1] (setting [4]) and in assay [1] (setting [5]) were 15.0% and 10.0%, respectively. Further, the “% of explants producing multiple shoots from a single primary meristem” value (shortened to “% of explants producing multiple shoots”) in assay [1] (setting [4]) and in assay [1] (setting [5]) was 0% in each case.

For `O=C(O)CCCc1c[nH]c2ccccc12` [IBA, 3-indolebutyric acid], the “% shoots producing roots” value in assay [2] is on record as “significantly increased the rooting response”.

On to `c1coc(CNc2ncnc3[nH]cnc23)c1` [Kinetin, kinetin], for which, in assay [1] (setting [4]), the “% of explants producing 2-5 shoots” value came out at 23.8% and the “% of explants producing multiple shoots” value was 0%. Also, in assay [1] (setting [5]), the “% of explants producing 2-5 shoots” value came to 20.0% and the “% of explants producing multiple shoots” value is recorded as 0%.

As to `O=C(Nc1ccccc1)Nc1cnns1` [TDZ, thidiazuron], in assay [1] (setting [4]), the “% of explants producing 2-5 shoots” value is 76.2% and the “% of explants producing multiple shoots” value came to 0%. In addition, in assay [1] (setting [5]), the “% of explants producing 2-5 shoots” value was 80.0% and the “% of explants producing multiple shoots” value worked out at 0%. Besides, in assay [3], the “% explants producing 20-80 buds/primary meristem” value turned out to be 0% and the “No. primary meristems produced/explant” value is listed as 2-5.

For `C/C(=C\CNc1ncnc2[nH]cnc12)CO` [Zeatin, zeatin], in assay [1] (setting [4]), the “% of explants producing 2-5 shoots” value is reported as 45.0% and the “% of explants producing multiple shoots” value was 0%. Moreover, in assay [1] (setting [5]), the “% of explants producing 2-5 shoots” value is 20.0% and the “% of explants producing multiple shoots” value came to 0%.
